Source: PMC10536189 (Microorganisms, 2023)
Like-named read-outs stand apart in the source and are kept apart here. Where no end group is shown, it is not given here.

Experiments:
[1] = tested on: Mycobacterium tuberculosis (MTB); format: cell-based, Mycobacterium tuberculosis (laboratory strain H37Rv)
[2] = tested on: M. tuberculosis; format: cell-based, Mycobacterium tuberculosis (laboratory strain H37Rv); settings: for Time to Positivity (Days.Hours) Experiment 2a / Time to Positivity (Days.Hours) Experiment 2b: diluted inoculum; for Time to Positivity (Days.Hours) Experiment 2a: technical repeat 2a, TB control (no peptide) 15.01; for Time to Positivity (Days.Hours) Experiment 2b: technical repeat 2b, TB control (no peptide) 15.20; for Time to Positivity (Days.Hours) Experiment 1a / Time to Positivity (Days.Hours) Experiment 1b: less diluted inoculum; for Time to Positivity (Days.Hours) Experiment 1a: technical repeat 1a, TB control (no peptide) 7.02; for Time to Positivity (Days.Hours) Experiment 1b: technical repeat 1b, TB control (no peptide) 7.01; for Average % Faster than Control: negative = slower
[3] = tested on: Mycobacterium avium subsp. paratuberculosis (MAP); format: cell-based; settings: for Effect on growth of MAP compared to control: peptide 20 µg/mL, 37 °C
[4] = peptide 10 µg/mL, overall average of the averages of experiments 1a/1b and 2a/2b
[5] = crude peptide 10 µg/mL, average of experiments 1 and 2
[6] = crude peptide 10 µg/mL, MGIT, independent experiment 1, Control (TB only) 11.10, inoculum emulsified through G25 needle
[7] = crude peptide 10 µg/mL, MGIT, independent experiment 2, Control (TB only) 9.10, inoculum emulsified through G25 needle

Substance	Time to Positivity (Days.Hours) Experiment 2a ([2]; peptide 10 µg/mL, MGIT)	Time to Positivity (Days.Hours) Experiment 2b ([2]; peptide 10 µg/mL, MGIT)	Time to Positivity (Days.Hours) Experiment 1a ([2]; peptide 10 µg/mL, MGIT)	Time to Positivity (Days.Hours) Experiment 1b ([2]; peptide 10 µg/mL, MGIT)	Average % Faster than Control [2, 4]	Time to Positivity (Day.Hours) Experiment 1 [2]	Time to Positivity (Day.Hours) Experiment 2 [2]	Average % Faster than Control [2, 5]	also measured
RRWRIVVIRVRR-CONH2 (RRWRIVVIRVRR-NH2) [Peptide 69]	13.12 Days.Hours	13.02 Days.Hours	6.02 Days.Hours	6.02 Days.Hours	12.8%	–	–	–	Effect on growth of MTB compared to control [1]: slight improvements; Effect on TTP of MTB in words ([2]; peptide 10 µg/mL, MGIT): strong hormetic response
RLARIVVIRWAR-CONH2 (RLARIVVIRWAR-NH2) [Peptide 72]	15.01 Days.Hours	15.13 Days.Hours	6.22 Days.Hours	7.01 Days.Hours	−0.2%	–	–	–	Effect on growth of MAP compared to control [3]: significant reduction in the growth
RLARIVVIRVRR-CONH2 (RLARIVVIRVRR-NH2) [Peptide 70]	14.22 Days.Hours	15.06 Days.Hours	6.03 Days.Hours	6.19 Days.Hours	4.2%	–	–	–	Effect on growth of MAP compared to control [3]: no discernible effect on the growth
rrwrivvirvrr-CONH2 [Peptide 69D]	–	–	–	–	–	–	–	–	Effect on growth of MAP (growth-enhancing activity) of protease-stabilised peptides ([3]; peptide 10 µg/mL, absorbance at 600 nm): growth-enhancing activity remained; Concentration at which growth inhibition of MTB is observed [1]: ≥ 10 µg/mL; Concentration with strong sustained growth stimulation of MTB [1]: 10 ng/mL
FFIYVWRRR [P8/Designed *]	–	–	–	–	–	11.16 Day.Hours	8.22 Day.Hours	1.6%	–
FFPFLLGALGSLLPKIF [Temporin-SN1/Frog]	–	–	–	–	–	10.22 Day.Hours	8.23 Day.Hours	4.6%	–
YAYVRIRGVLVRYRRC [Arenicin-2/Lugworm]	–	–	–	–	–	11.13 Day.Hours	8.03 Day.Hours	6.3%	–
49: peptide from the authors' library (VRLRIRVRVIRK) [Peptide 49]	15.12 Days.Hours	15.02 Days.Hours	5.22 Days.Hours	6.06 Days.Hours	6.2%	–	–	–	–
GFKRIVQRIKDFLRNLV [GF-17/Human *]	–	–	–	–	–	10.02 Day.Hours	8.07 Day.Hours	11.8%	–
FFGSVLKLIPKIL [Temporin-PTa/Frog, naturally occurring peptide, APD3, frog]	–	–	–	–	–	–	–	6.3%	Time to Positivity (Day.Hours) Experiment 1 [2, 6]: 11.07 Day.Hours; Time to Positivity (Day.Hours) Experiment 2 [2, 7]: 8.08 Day.Hours
FFHHIFRGIVHVGKTI [Piscidin 1/Fish *, fragment of naturally occurring peptide, APD3, fish]	–	–	–	–	–	–	–	7.8%	Time to Positivity (Day.Hours) Experiment 1 [2, 6]: 10.18 Day.Hours; Time to Positivity (Day.Hours) Experiment 2 [2, 7]: 8.12 Day.Hours
22: peptide from the authors' library (IRMRIRVLL) [Peptide 22]	15.19 Days.Hours	15.10 Days.Hours	6.00 Days.Hours	6.07 Days.Hours	4.7%	–	–	–	–
LFKLLGKIIHHVGNFV [Clavanin E/Sea squirt, naturally occurring peptide, APD3, sea squirt]	–	–	–	–	–	–	–	5.8%	Time to Positivity (Day.Hours) Experiment 1 [2, 6]: 11.05 Day.Hours; Time to Positivity (Day.Hours) Experiment 2 [2, 7]: 8.12 Day.Hours
FIFIRWLLKLGHHGRA [Salusin-beta/Scorpion *]	–	–	–	–	–	10.18 Day.Hours	8.03 Day.Hours	9.8%	–
FVQWFSKFLGRIL [Temporin L/Frog]	–	–	–	–	–	11.06 Day.Hours	8.05 Day.Hours	7.1%	–
FLSTIWNGIKSLL [Pantinin-3/Scorpion]	–	–	–	–	–	11.08 Day.Hours	8.23 Day.Hours	2.8%	–
59: peptide from the authors' library (ILKWKRKWWKWRR) [Peptide 59]	13.19 Days.Hours	12.22 Days.Hours	5.17 Days.Hours	5.22 Days.Hours	14.5%	–	–	–	–
GRLCYCRGWICFCVGR [Protegrin 4/Pig *]	–	–	–	–	–	11.11 Day.Hours	8.01 Day.Hours	7.1%	–
FLGVVFKLASKVFPAV [D28/Designed *]	–	–	–	–	–	11.02 Day.Hours	8.09 Day.Hours	7.0%	–
3: peptide from the authors' library (WKWRVRVTI) [Peptide 3]	14.22 Days.Hours	15.02 Days.Hours	6.08 Days.Hours	6.17 Days.Hours	4.0%	–	–	–	–
OdVP2/Wasp: naturally occurring peptide, APD3, wasp (ILGIITSLLKSLGKK)	–	–	–	–	–	10.22 Day.Hours	8.11 Day.Hours	7.3%	–
29: peptide from the authors' library (RWRWWWRVY) [Peptide 29]	15.12 Days.Hours	15.01 Days.Hours	6.13 Days.Hours	6.00 Days.Hours	4.9%	–	–	–	–
63: peptide from the authors' library; same sequence as Indolicidin/Cow (ILPWKWPWWPWRR) [Peptide 63]	17.01 Days.Hours	17.10 Days.Hours	6.22 Days.Hours	6.22 Days.Hours	−5.5%	–	–	–	Effect on TTP of MTB in words ([2]; peptide 10 µg/mL, MGIT): delayed TTP
16: peptide from the authors' library (RLKRWWKFL) [Peptide 16]	14.17 Days.Hours	14.20 Days.Hours	6.01 Days.Hours	5.22 Days.Hours	8.6%	–	–	–	–
FLPLIGRVLSGIL [Temporin A/Frog, naturally occurring peptide, APD3, frog]	–	–	–	–	–	–	–	3.7%	Time to Positivity (Day.Hours) Experiment 1 [2, 6]: 11.02 Day.Hours; Time to Positivity (Day.Hours) Experiment 2 [2, 7]: 9.00 Day.Hours
62: peptide from the authors' library (ILKWKMFKWKWFR) [Peptide 62]	16.20 Days.Hours	17.16 Days.Hours	6.07 Days.Hours	7.02 Days.Hours	−3.4%	–	–	–	Effect on TTP of MTB in words ([2]; peptide 10 µg/mL, MGIT): delayed TTP
FLPLVTMLLGKLF [Temporin-1Vc/Frog]	–	–	–	–	–	11.12 Day.Hours	8.21 Day.Hours	2.5%	–
